# Experimental data from PubChem BioAssay AID2060909 (Molecular Pharmacology Branch, DTP, NCI, 2025).
# Tested on: 362531-283-R-J2-PDC complex spheroid viability
# Experiment: Anticancer human tumor 362531-283-R-J2-PDC patient-derived colon adenocarcinoma cell line growth inhibition [RAS]
# Details: for viability, T/C: stronger effect = lower value
# In short: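 Multi-cell-type spheroids: tumor cells plus HUVEC endothelial cells and mesenchymal stem cells. RAS-pathway inhibitors were combined with targeted agents, each dosed in half-log steps down from clinical Cmax, or from 10 microM when Cmax was unknown.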
# [1] = curve of first compound, second compound 0.00316 µM
# [2] = curve of first compound, second compound 0.01 µM
# [3] = curve of first compound, second compound 0.0316 µM
# [4] = curve of first compound, second compound 0.1 µM
# [5] = curve of first compound, second compound 0.316 µM
# [6] = curve of first compound, second compound 1 µM
# [7] = second compound 0.00316 µM, first compound 0.0316 µM
# [8] = second compound 0.00316 µM, first compound 0.1 µM
# [9] = second compound 0.00316 µM, first compound 0.316 µM
# [10] = second compound 0.00316 µM, first compound 1 µM
# [11] = second compound 0.01 µM, first compound 0.0316 µM
# [12] = second compound 0.01 µM, first compound 0.1 µM
# [13] = second compound 0.01 µM, first compound 0.316 µM
# [14] = second compound 0.01 µM, first compound 1 µM
# [15] = second compound 0.0316 µM, first compound 0.0316 µM
# [16] = second compound 0.0316 µM, first compound 0.1 µM
# [17] = second compound 0.0316 µM, first compound 0.316 µM
# [18] = second compound 0.0316 µM, first compound 1 µM
# [19] = second compound 0.1 µM, first compound 0.0316 µM
# [20] = second compound 0.1 µM, first compound 0.1 µM
# [21] = second compound 0.1 µM, first compound 0.316 µM
# [22] = second compound 0.1 µM, first compound 1 µM
# [23] = second compound 0.316 µM, first compound 0.0316 µM
# [24] = second compound 0.316 µM, first compound 0.1 µM
# [25] = second compound 0.316 µM, first compound 0.316 µM
# [26] = second compound 0.316 µM, first compound 1 µM
# [27] = second compound 1 µM, first compound 0.0316 µM
# [28] = second compound 1 µM, first compound 0.1 µM
# [29] = second compound 1 µM, first compound 0.316 µM
# [30] = second compound 1 µM, first compound 1 µM
# 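Further: spheroids exposed to the agents for 7 days before readout.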
# 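Wherever viability, T/C is given: luminescence viability as percent of DMSO vehicle control wells.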
smiles,measurement,setting,value
CCC(CC)c1cc(NC2CCC(N)C2)n2nccc2n1 (stereo not drawn) + C=CC(=O)N1CCN(c2nc(OCC3CCCN3C)nc3c(F)c(-c4nc(N)cc(C)c4C(F)(F)F)c(Cl)cc23)C(C)C1,IC50,[1],4140 nM
same,IC50,[2],4690 nM
same,IC50,[3],5540 nM
same,IC50,[4],4920 nM
same,IC50,[5],4660 nM
same,IC50,[6],4540 nM
same,"viability, T/C",[7],99.6%
same,"viability, T/C",[8],100%
same,"viability, T/C",[9],104%
same,"viability, T/C",[10],95.2%
same,"viability, T/C","second compound 0.00316 µM, first compound 3.16 µM",64.2%
same,"viability, T/C","second compound 0.00316 µM, first compound 10 µM",3.95%
same,"viability, T/C",[11],102%
same,"viability, T/C",[12],108%
same,"viability, T/C",[13],106%
same,"viability, T/C",[14],102%
same,"viability, T/C","second compound 0.01 µM, first compound 3.16 µM",73.5%
same,"viability, T/C","second compound 0.01 µM, first compound 10 µM",5.05%
same,"viability, T/C",[15],100%
same,"viability, T/C",[16],115%
same,"viability, T/C",[17],100%
same,"viability, T/C",[18],103%
same,"viability, T/C","second compound 0.0316 µM, first compound 3.16 µM",92.5%
same,"viability, T/C","second compound 0.0316 µM, first compound 10 µM",5.29%
same,"viability, T/C",[19],102%
same,"viability, T/C",[20],113%
same,"viability, T/C",[21],102%
same,"viability, T/C",[22],107%
same,"viability, T/C","second compound 0.1 µM, first compound 3.16 µM",79.1%
same,"viability, T/C","second compound 0.1 µM, first compound 10 µM",3.6%
same,"viability, T/C",[23],97%
same,"viability, T/C",[24],97.2%
same,"viability, T/C",[25],104%
same,"viability, T/C",[26],109%
same,"viability, T/C","second compound 0.316 µM, first compound 3.16 µM",73.3%
same,"viability, T/C","second compound 0.316 µM, first compound 10 µM",4.47%
same,"viability, T/C",[27],107%
same,"viability, T/C",[28],105%
same,"viability, T/C",[29],95.8%
same,"viability, T/C",[30],102%
same,"viability, T/C","second compound 1 µM, first compound 3.16 µM",70.5%
same,"viability, T/C","second compound 1 µM, first compound 10 µM",5.01%
CC(Nc1ccc2c(c1)OCCn1cc(N3C(=O)OCC3C(F)F)nc1-2)C(N)=O (stereo not drawn) + CCn1c(-c2cc(N3CCN(C)CC3)cnc2C(C)OC)c2c3cc(ccc31)-c1csc(n1)CC(NC(=O)C1CC1C)C(=O)N1CCCC(N1)C(=O)OCC(C)(C)C2,IC50,"curve of first compound, second compound 0.000949 µM",1290 nM
same,IC50,"curve of first compound, second compound 0.003 µM",1610 nM
same,IC50,"curve of first compound, second compound 0.00949 µM",952 nM
same,IC50,"curve of first compound, second compound 0.03 µM",849 nM
same,IC50,"curve of first compound, second compound 0.0949 µM",431 nM
same,IC50,"curve of first compound, second compound 0.3 µM",< 31.6 nM
same,"viability, T/C","second compound 0.000949 µM, first compound 0.0316 µM",98.7%
same,"viability, T/C","second compound 0.000949 µM, first compound 0.1 µM",107%
same,"viability, T/C","second compound 0.000949 µM, first compound 0.316 µM",86.6%
same,"viability, T/C","second compound 0.000949 µM, first compound 1 µM",58%
same,"viability, T/C","second compound 0.000949 µM, first compound 3.16 µM",26.4%
same,"viability, T/C","second compound 0.000949 µM, first compound 10 µM",27.9%
same,"viability, T/C","second compound 0.003 µM, first compound 0.0316 µM",103%
same,"viability, T/C","second compound 0.003 µM, first compound 0.1 µM",98.8%
same,"viability, T/C","second compound 0.003 µM, first compound 0.316 µM",93%
same,"viability, T/C","second compound 0.003 µM, first compound 1 µM",59.5%
same,"viability, T/C","second compound 0.003 µM, first compound 3.16 µM",36.7%
same,"viability, T/C","second compound 0.003 µM, first compound 10 µM",27.5%
same,"viability, T/C","second compound 0.00949 µM, first compound 0.0316 µM",96.8%
same,"viability, T/C","second compound 0.00949 µM, first compound 0.1 µM",105%
same,"viability, T/C","second compound 0.00949 µM, first compound 0.316 µM",64.9%
same,"viability, T/C","second compound 0.00949 µM, first compound 1 µM",56.2%
same,"viability, T/C","second compound 0.00949 µM, first compound 3.16 µM",32.4%
same,"viability, T/C","second compound 0.00949 µM, first compound 10 µM",32.3%
same,"viability, T/C","second compound 0.03 µM, first compound 0.0316 µM",97.2%
same,"viability, T/C","second compound 0.03 µM, first compound 0.1 µM",89.6%
same,"viability, T/C","second compound 0.03 µM, first compound 0.316 µM",70.7%
same,"viability, T/C","second compound 0.03 µM, first compound 1 µM",45.8%
same,"viability, T/C","second compound 0.03 µM, first compound 3.16 µM",38.7%
same,"viability, T/C","second compound 0.03 µM, first compound 10 µM",34.9%
same,"viability, T/C","second compound 0.0949 µM, first compound 0.0316 µM",88.6%
same,"viability, T/C","second compound 0.0949 µM, first compound 0.1 µM",73%
same,"viability, T/C","second compound 0.0949 µM, first compound 0.316 µM",51.9%
same,"viability, T/C","second compound 0.0949 µM, first compound 1 µM",41.7%
same,"viability, T/C","second compound 0.0949 µM, first compound 3.16 µM",32.5%
same,"viability, T/C","second compound 0.0949 µM, first compound 10 µM",29.4%
same,"viability, T/C","second compound 0.3 µM, first compound 0.0316 µM",32.6%
same,"viability, T/C","second compound 0.3 µM, first compound 0.1 µM",28.3%
same,"viability, T/C","second compound 0.3 µM, first compound 0.316 µM",11.2%
same,"viability, T/C","second compound 0.3 µM, first compound 1 µM",3.11%
same,"viability, T/C","second compound 0.3 µM, first compound 3.16 µM",3.38%
same,"viability, T/C","second compound 0.3 µM, first compound 10 µM",3.53%
CC(=O)OC12COC1CC(O)C1(C)C(=O)C(O)C3=C(C)C(OC(=O)C(O)C(NC(=O)OC(C)(C)C)c4ccccc4)CC(O)(C(OC(=O)c4ccccc4)C21)C3(C)C (stereo not drawn),"viability, T/C",compound 0.0316 µM,101% [middle of 4 runs]
same,"viability, T/C",compound 0.1 µM,90.8% [middle of 4 runs]
same,"viability, T/C",compound 0.316 µM,32.6% [middle of 4 runs]
same,"viability, T/C",compound 1 µM,21.6% [middle of 4 runs]
same,"viability, T/C",compound 3.16 µM,27.5% [middle of 4 runs]
same,"viability, T/C",compound 10 µM,36% [middle of 4 runs]
same,IC50,curve of compound,226 nM [middle of 4 runs]
C=CC(=O)Nc1cc(Nc2nccc(-c3cn(C)c4ccccc34)n2)c(OC)cc1N(C)CCN(C)C + C=CC(=O)N1CCN(c2nc(OCC3CCCN3C)nc3c(F)c(-c4nc(N)cc(C)c4C(F)(F)F)c(Cl)cc23)C(C)C1,IC50,[1],> 1000 nM
same,IC50,[2],> 1000 nM
same,IC50,[3],> 1000 nM
same,IC50,[4],> 1000 nM
same,IC50,[5],> 1000 nM
same,IC50,[6],> 1000 nM
same,"viability, T/C","second compound 0.00316 µM, first compound 0.00316 µM",103%
same,"viability, T/C","second compound 0.00316 µM, first compound 0.01 µM",97.4%
same,"viability, T/C",[7],100%
same,"viability, T/C",[8],95.6%
same,"viability, T/C",[9],89%
same,"viability, T/C",[10],69.8%
same,"viability, T/C","second compound 0.01 µM, first compound 0.00316 µM",107%
same,"viability, T/C","second compound 0.01 µM, first compound 0.01 µM",100%
same,"viability, T/C",[11],104%
same,"viability, T/C",[12],98.3%
same,"viability, T/C",[13],96.9%
same,"viability, T/C",[14],56%
same,"viability, T/C","second compound 0.0316 µM, first compound 0.00316 µM",104%
same,"viability, T/C","second compound 0.0316 µM, first compound 0.01 µM",99.2%
same,"viability, T/C",[15],98.3%
same,"viability, T/C",[16],94.9%
same,"viability, T/C",[17],93.5%
same,"viability, T/C",[18],65.5%
same,"viability, T/C","second compound 0.1 µM, first compound 0.00316 µM",103%
same,"viability, T/C","second compound 0.1 µM, first compound 0.01 µM",104%
same,"viability, T/C",[19],101%
same,"viability, T/C",[20],96.8%
same,"viability, T/C",[21],101%
same,"viability, T/C",[22],62.8%
same,"viability, T/C","second compound 0.316 µM, first compound 0.00316 µM",93.8%
same,"viability, T/C","second compound 0.316 µM, first compound 0.01 µM",96%
same,"viability, T/C",[23],98.1%
same,"viability, T/C",[24],94.8%
same,"viability, T/C",[25],96.2%
same,"viability, T/C",[26],54.9%
same,"viability, T/C","second compound 1 µM, first compound 0.00316 µM",105%
same,"viability, T/C","second compound 1 µM, first compound 0.01 µM",95.8%
same,"viability, T/C",[27],97.4%
same,"viability, T/C",[28],103%
same,"viability, T/C",[29],86.5%
same,"viability, T/C",[30],70.7%
